We go through 10 molecules from patent publication US8932807B2, “High throughput in vitro translation (cell-lysate based) assay for detecting quorum sensing signals” (University of South Carolina, priority 2007, dated 2015).

Assay type in all cases: biochemical, Agrobacterium tumefaciens NTL4 (pCF218)(pCF372)
For experiment [1], the target named is T1, receptor protein TraR (Agrobacterium tumefaciens, UniProt P33905).
T1 construct: expressed in transfected cells; host or cells: Agrobacterium tumefaciens NTL4 (pCF218)(pCF372); crude cell-free lysate (supernatant of sonicated cells)
T1 sequence (P33905 whole entry): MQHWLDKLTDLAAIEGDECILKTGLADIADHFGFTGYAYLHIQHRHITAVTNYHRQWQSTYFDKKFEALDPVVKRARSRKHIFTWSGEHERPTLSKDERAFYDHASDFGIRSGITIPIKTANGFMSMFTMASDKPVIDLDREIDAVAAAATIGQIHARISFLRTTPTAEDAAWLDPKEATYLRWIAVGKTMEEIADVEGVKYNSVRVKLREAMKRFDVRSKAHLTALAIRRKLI
Kind of experiment: cell-free lysate luminescence assay (Beta-Glo) for detection of AHLs. Conditions: for detection of the AHL by the cell-free assay: comparison of absorbance and luminescence assays; for minimum concentration of AHL resulting in an induction ratio greater than 3, Luminescence assay: cell-free lysate, Beta-Glo, 30° 2 h + 1 h, means±SD (n=3); for level that can be detected, luminescence assay / minimum detection limit, luminescence assay: summary statement. As for the experimental part:
From step 5) • 6) 50 μl of sample solution containing AHLs was added in 96-well plate. • 7) 50 μl of assay reagent diluted in 20 mM KH2PO4 was added into each well, mix and incubate at 30° for 2 h. • 8) 100 μl of an appropriate luminescent substrate (e.g. β-Glo, Promega) was added into each well, mix and incubate and incubate at 30° C. for 1 h. • 9) luminescence was read by microplate luminometer (e.g. Veritas Turner BioSystems). This experiment is discussed in greater detail below.
(§1) Preparation of cell-free lysate. One liter of the reporter strain was grown in AT minimum glucose media (30° C. with shaking for 18 h) to early exponential-phase and then harvested by centrifugation (12,000×g; 10 min). Cell pellets were collected and resuspended in 5 ml of KH2PO4 buffer (100 mM; pH 7.4), then sonicated for 30 sec. three times and centrifuged (12,000×g) at 4° C. for 30 min to remove particulate cell fragments. The supernatant was collected as the ‘cell-free lysate (CFL)’ reagent, and was stored (−80° C.) until use.
Comparison of absorbance and luminescence assays. To improve the sensitivity of the cell-free approach, a luminescence assay was developed for AHLs. The protocol involved: 1) addition of 50 μl of sample solution containing AHLs into a 96-well plate; 2) addition of 50 μl of cell-free extract, diluted in 20 mM KH2PO4 buffer (pH 7.0) resulting in a protein concentration of 80 μg/ml for each well, and then mixed and incubated at 30° for 2 h; 3) addition of 100 μl of β-Glo® (Promega) into each well, followed by mixing and incubation (30° C. for 1 h); and 4) measurement of luminescence using a Veritus Microplate Luminometer (Turner BioSystems). For control wells, 20 mM KH2PO4 (pH 7.0) buffer was used. To determine the detection limit, a 1:1 serial dilution of each AHL was performed in triplicate using 20 mM KH2PO4 (pH 7.0) buffer. Then, absorbance assays were conducted. Induction of β-galactosidase activity was calculated by dividing the sample absorbance or luminescence with that of controls. An induction ratio greater than 3 was considered active (27).

Experiment [2] addresses T1, receptor protein TraR. Kind of experiment: cell-free lysate absorbance assay (X-Gal, 635 nm) for detection of AHLs. Conditions: for minimum concentration of AHL resulting in an induction ratio greater than 3, Absorbance assay: cell-free lysate, X-Gal, absorbance 635 nm, means±SD (n=3). How it is done:
Absorbance Assay • 1) A culture of A. tumefaciens NTL4 (pCF218)(pCF372) was grown in 250 ml of AT minimal glucose media plus streptomycin (50 μg/ml) and tetracycline (5 μg/ml) at 30° C. with shaking for 18 hrs. • 2) The resulting cell culture was centrifuged at 10,000 rpm for 10 min. to collect cell pellets. • 3) The collected cell pellets were sonicated in 8 ml of 0.1 M KH2PO4 (pH 7.0) buffer to produce a homogenate. • 4) The sonicated homogenate was centrifuged at 50,000 rpm for 30 min. and the supernatant solution was collected. • 5) The supernatant solution was stored at −20° C. until the experiment. • 6) 50 μl of a sample solution containing AHLs was added to the wells of a 96-well plate. • 7) 50 μl of the collected supernatant solution from step (5), along with 100 μl of 20 mM KH2PO4, was added and mixed to each sample, and each sample was incubated at 30° for 2 h. • 8) 1 μl of X-Gal (20 mg/ml) was added and mixed into each well, and each sample was incubated at 30° C. for 1 h. • 9) The absorbance of each well was read at 635 nm.
as §1
Confirmation of β-galactosidase expression in vitro cell-free solution. To confirm β-galactosidase expression in cell-free solution, the following simple absorbance assay for AHLs was used. The protocol involved: 1) addition of 50 μl of sample solution containing AHLs into a 96-well plate; 2) addition of 50 μl of cell-free extract and 100 μl of 20 mM KH2PO4 (pH 7.0) into each well, followed by mixing and incubation at 30° C. for 2 h; 3) addition of 1 μl of X-Gal (20 mg/ml) into each well, then mixing and incubation at 30° C. for 1 h; and 4) measurement of absorbance in each well at 635 nm by spectrophotometer (Shimadzu UV-2401 PC UV-VIS, Shimadzu Corp.). To determine the detection limits, 1:1 serial dilutions of each AHL in 20 mM KH2PO4 (pH 7.0) buffer were performed in triplicate. Induction of β-galactosidase activity was calculated by dividing the absorbance of samples by those of controls. An induction ratio greater than 3 was considered active.

Experiment [3] relates to binding of AHL/TraR complex to β-galactosidase promoter. The experiment can be described thus: inhibition of Reactions 2) and 3) of the cell-free assay by streptomycin. As to conditions: 1 μM C8-AHL, 30 min pre-incubation, absorbance, FIG. 5C. As for the experimental part:
Inhibition of Reactions 2) and 3). […] First, 50 μl aliquots of 1 μM C8-AHL solution was added to each tube, followed by addition of cell-free extract. Further, a series of increasing concentrations of streptomycin (i.e. 0, 50, 125, 250, 300 μg) were added to the cell-free extract and incubated for 30 min. prior to the assay (4, 22, 29). Then, β-galactosidase expression was measured by absorbance.

For `CCCC(=O)N[C@H]1CCOC1=O` [C4-AHL, N-butanoyl-homoserine lactone], at receptor protein TraR [1], the “detection of the AHL by the cell-free assay” value is recorded as “not able to detect”.

For `CCCCCC(=O)NC1CCOC1=O` (stereo not drawn) [C6-AHL, N-hexanoyl-homoserine lactone], at receptor protein TraR [1], the “minimum concentration of AHL resulting in an induction ratio greater than 3, Luminescence assay” value came out at 30 ± 3 nM and the “level that can be detected, luminescence assay” value (“level that can be detected” below) is listed as “low μM level”. For the same molecule, the “minimum concentration of AHL resulting in an induction ratio greater than 3, Absorbance assay” value on receptor protein TraR [2] came to 335 ± 10 nM.

Regarding `CCCCCCC(=O)N[C@H]1CCOC1=O` [C7-AHL, N-heptanoyl-homoserine lactone], at receptor protein TraR [1], the “minimum concentration of AHL resulting in an induction ratio greater than 3, Luminescence assay” value stood at 25 ± 5 nM and the “minimum detection limit, luminescence assay” value (from here on “minimum detection limit”) is recorded as “approximately 10 nM”. Moreover, the “minimum concentration of AHL resulting in an induction ratio greater than 3, Absorbance assay” value at receptor protein TraR [2] stood at 245 ± 8 nM.

As for `CCCCCCCC(=O)NC1CCOC1=O` (stereo not drawn) [C8-AHL, N-octanoyl-homoserine lactone], at receptor protein TraR [1], the “minimum concentration of AHL resulting in an induction ratio greater than 3, Luminescence assay” value came out at 20 ± 2 nM and the “minimum detection limit” value is “approximately 10 nM”. For the same molecule, on receptor protein TraR [2], the “minimum concentration of AHL resulting in an induction ratio greater than 3, Absorbance assay” value is reported as 225 ± 11 nM. The “absorbance changes (635 nm) proportional to concentration, up to” value on receptor protein TraR [2] (dose-response of β-galactosidase expression, FIG. 6) is reported as “up to 2 μM”.

As for `CCCCCCCCCC(=O)N[C@H]1CCOC1=O` [C10-AHL, N-decanoyl-homoserine lactone], at receptor protein TraR [1], the “minimum concentration of AHL resulting in an induction ratio greater than 3, Luminescence assay” value was 100 ± 5 nM and the “level that can be detected” value was “low μM level”. For the same molecule, the “minimum concentration of AHL resulting in an induction ratio greater than 3, Absorbance assay” value at receptor protein TraR [2] amounted to 1300 ± 20 nM.

For the molecule `CCCCCCCCCCCC(=O)NC1CCOC1=O` (stereo not drawn) [C12-AHL, N-dodecanoyl-homoserine lactone], on receptor protein TraR [1], the “minimum concentration of AHL resulting in an induction ratio greater than 3, Luminescence assay” value is recorded as 200 ± 6 nM and the “level that can be detected” value was “low μM level”. Also, the “minimum concentration of AHL resulting in an induction ratio greater than 3, Absorbance assay” value on receptor protein TraR [2] was 2400 ± 30 nM.

As for `CCCCCCCCCCCCCC(=O)N[C@H]1CCOC1=O` [C14-AHL, N-tetradecanoyl-homoserine lactones], the “detection of the AHL by the cell-free assay” value on receptor protein TraR [1] is “not able to detect”.

Take `CCCC(=O)CC(=O)N[C@H]1CCOC1=O` [oxo-C6-AHL, N-3-oxo-hexanoyl-homoserine lactone]: on receptor protein TraR [1], the “minimum concentration of AHL resulting in an induction ratio greater than 3, Luminescence assay” value is on record as 17 ± 2 nM and the “minimum detection limit” value is reported as “approximately 10 nM”. In addition, the “minimum concentration of AHL resulting in an induction ratio greater than 3, Absorbance assay” value on receptor protein TraR [2] was found to be 180 ± 25 nM.

As for `CCCCCC(=O)CC(=O)NC1CCOC1=O` (stereo not drawn) [oxo-C8-AHL, N-3-oxo-octanoyl-homoserine lactone], on receptor protein TraR [1], the “minimum concentration of AHL resulting in an induction ratio greater than 3, Luminescence assay” value was 10 ± 3 nM. Besides, the “minimum concentration of AHL resulting in an induction ratio greater than 3, Absorbance assay” value at receptor protein TraR [2] is on record as 120 ± 10 nM.

With `[H]/N=C(/N)N[C@H]1[C@H](O)[C@@H](O)[C@H](O[C@@H]2O[C@@H](C)[C@](O)(C=O)[C@H]2O[C@@H]2O[C@@H](CO)[C@H](O)[C@@H](O)[C@@H]2NC)[C@@H](N/C(N)=N\[H])[C@@H]1O` [streptomycin], in experiment [3], the “streptomycin additions that reduced assay activities” value is “above 125 μg/ml”.
